Source: ChEMBL document CHEMBL5352393, “Discovery of small-molecule modulators of the secretin receptor: Purmorphamine as novel anti-hypertensive agent” (Eur J Med Chem, 2022)
Each block holds one molecule with its values, some of them ahead of it. Active and inactive are the calls of the source. No cut-off for these calls is given here.

Legend:
Secretin receptor [1] = target: T1, Secretin receptor (Homo sapiens, UniProt P47872); test: Positive allosteric modulation of SCTR (unknown origin) overexpressed in CHO cells assessed as potentiation of SCT-induced cAMP production by measuring maximal response at 100 uM incubated for 20 mins by Lance cAMP assay relative to control (reference value: 100 %); assay type: functional, cell-based; conditions: filed as positive allosteric modulator
Secretin receptor [2] = target: T1, Secretin receptor; test: Negative allosteric modulation of SCTR (unknown origin) overexpressed in CHO cells assessed as decrease in SCT-induced cAMP production by measuring maximal response at 100 uM incubated for 20 mins by Lance cAMP assay relative to control (reference value: 100 %); assay type: functional, cell-based; conditions: filed as negative allosteric modulator
Rattus norvegicus [3] = test: Antihypertensive activity in anesthetized spontaneous hypertensive rat model assessed as reduction in mean arterial blood pressure at 1 mg/kg, po measured within 20 hrs in presence of 0.3 mg/kg Azilsartan relative to control; assay type: functional; parameters: scale not given: the % may be the effect or the level left
Secretin receptor [4] = target: T1, Secretin receptor; test: Synergistic agonist activity at SCTR (unknown origin) expressed in CHO cells assessed as fold increase in cAMP production at 100 uM incubated for 20 mins in presence of SCT by Lance cAMP assay (reference value: 4.13); assay type: functional, cell-based; conditions: filed as agonist
[5] = Drug concentration in C57 mouse blood at 1000 mg/kg, po administered via gavage measured at 24 hrs by LC-MS/MS analysis; assay type: ADME, organism-based; conditions: read-out: Ct
Secretin receptor [6] = target: T1, Secretin receptor; test: Positive allosteric modulation of SCTR (unknown origin) expressed in CHO cells assessed as potentiation of SCT-induced cAMP production by measuring maximal response at 100 uM incubated for 20 mins in presence of 1 uM SCT by Lance cAMP assay (reference value: 100 +/- 0.03%); assay type: functional, cell-based; conditions: filed as positive allosteric modulator
[7] = Drug concentration in C57 mouse blood at 1000 mg/kg, po administered via gavage measured at 6 hrs by LC-MS/MS analysis; assay type: ADME, organism-based; conditions: read-out: Ct
Rattus norvegicus [8] = test: Antihypertensive activity in anesthetized spontaneous hypertensive rat model assessed as reduction in mean arterial blood pressure at 50 mg/kg, po measured after 15 hrs relative to control; assay type: functional; parameters: scale not given: the % may be the effect or the level left
Secretin receptor [9] = target: T1, Secretin receptor; test: Positive allosteric modulation of SCTR (unknown origin) expressed in CHO cells assessed as potentiation of SCT-induced cAMP production by measuring maximal response at 10 uM incubated for 20 mins in presence of 1 uM SCT by Lance cAMP assay (reference value: 100 +/- 0.03%); assay type: functional, cell-based; conditions: filed as positive allosteric modulator
[10] = Half life in C57 mouse blood at 1000 mg/kg, po administered via gavage measured upto 24 hrs by LC-MS/MS analysis; assay type: ADME, organism-based
Secretin receptor [11] = target: T1, Secretin receptor; test: Positive allosteric modulation of SCTR (unknown origin) expressed in CHO cells assessed as potentiation of SCT-induced cAMP production by measuring maximal response at 1 uM incubated for 20 mins in presence of 1 uM SCT by Lance cAMP assay (reference value: 100 +/- 0.03%); assay type: functional, cell-based; conditions: filed as positive allosteric modulator
Rattus norvegicus [12] = test: Antihypertensive activity in anesthetized spontaneous hypertensive rat model assessed as reduction in mean arterial blood pressure at 30 mg/kg, po measured after 15 hrs relative to control; assay type: functional; parameters: scale not given: the % may be the effect or the level left
[13] = Drug concentration in C57 mouse blood at 1000 mg/kg, po administered via gavage measured after 12 hrs by LC-MS/MS analysis; assay type: ADME, organism-based; conditions: read-out: Ct
[14] = Cmax in C57 mouse blood at 1000 mg/kg, po administered via gavage measured upto 24 hrs by LC-MS/MS analysis; assay type: ADME, organism-based; parameters: time < 24 hrs, dose 1000 mg/kg, route po
Secretin receptor [15] = target: T1, Secretin receptor; test: Agonist activity at SCTR (unknown origin) expressed in CHO cells assessed as increase in cAMP production incubated for 20 mins Lance cAMP assay; assay type: functional, cell-based
[16] = Tmax in C57 mouse blood at 1000 mg/kg, po administered via gavage measured upto 24 hrs by LC-MS/MS analysis; assay type: ADME, organism-based
Rattus norvegicus [17] = test: Antihypertensive activity in anesthetized spontaneous hypertensive rat model assessed as reduction in mean arterial blood pressure at 0.26 microg/g, iv administered through tail vein and measured after 20 to 50 hrs by DSI telemetric transmitter based analysis relative to control; assay type: functional; parameters: scale not given: the % may be the effect or the level left; conditions: dose 0.26 µg/g, time 20-50 hrs
Secretin receptor [18] = target: T1, Secretin receptor; test: Agonist activity at SCTR (unknown origin) expressed in CHO cells assessed as increase in cAMP production by measuring maximal response incubated for 20 mins Lance cAMP assay relative to control; assay type: functional, cell-based
Rattus norvegicus [19] = test: Antihypertensive activity in anesthetized spontaneous hypertensive rat model assessed as reduction in blood pressure at 0.26 microg/g, iv administered through tail vein and measured after 20 to 50 hrs by DSI telemetric transmitter based analysis; assay type: functional, organism-based; conditions: dose 0.26 µg/g, time 20-50 hrs

T1 sequence (P47872 whole entry): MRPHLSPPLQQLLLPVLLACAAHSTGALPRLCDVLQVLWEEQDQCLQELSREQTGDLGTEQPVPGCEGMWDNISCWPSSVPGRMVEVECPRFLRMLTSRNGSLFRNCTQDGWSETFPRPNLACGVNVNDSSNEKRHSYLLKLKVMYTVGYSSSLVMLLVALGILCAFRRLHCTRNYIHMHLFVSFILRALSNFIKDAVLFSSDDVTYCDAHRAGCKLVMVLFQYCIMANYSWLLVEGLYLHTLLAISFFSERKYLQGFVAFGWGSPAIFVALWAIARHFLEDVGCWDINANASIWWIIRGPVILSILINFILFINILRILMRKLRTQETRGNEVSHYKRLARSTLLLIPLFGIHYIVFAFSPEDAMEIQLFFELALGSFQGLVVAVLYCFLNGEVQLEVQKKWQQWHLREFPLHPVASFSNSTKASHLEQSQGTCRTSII

Compound: OC1CCN(c2ccc(Nc3nc(Oc4cccc5ccccc45)nc4c3ncn4C3CCCCC3)cc2)CC1
Emax (Secretin receptor [1]): 166%

Compound: c1ccc(Oc2ccc(Nc3nc(Oc4cccc5ccccc45)nc4c3ncn4C3CCCCC3)cc2)cc1
Emax (Secretin receptor [1]): 98.8%

Compound: c1ccc2c(Oc3nc(Nc4ccc(-c5cccc6ccccc56)cc4)c4ncn(C5CCCCC5)c4n3)cccc2c1
Emax (Secretin receptor [2]): 54.1%

Compound: NS(=O)(=O)c1cc(C2(O)NC(=O)c3ccccc32)ccc1Cl (stereo unspecified) [CHLORTHALIDONE]
Activity (Rattus norvegicus [3]): 22.72%

More lines, main results first:

Emax (Secretin receptor [1]): 157%
Compound: O=C(O)c1cn(C2CCCCC2)c2nc(Oc3cccc4ccccc34)nc(Nc3ccc(N4CCOCC4)cc3)c12

Emax (Secretin receptor [1]): 165%
Compound: O[C@@H]1CCC[C@H](n2cnc3c(Nc4ccc(N5CCOCC5)cc4)nc(Oc4cccc5ccccc45)nc32)C1

Emax (Secretin receptor [1]): 181%
Compound: Oc1cc(N2CCOCC2)ccc1Nc1nc(Oc2cccc3ccccc23)nc2c1ncn2C1CCCCC1

Emax (Secretin receptor [1]): 146%
Compound: Oc1ccc2c(Oc3nc(Nc4ccc(N5CCOCC5)cc4)c4ncn(C5CCCCC5)c4n3)cccc2c1

Emax (Secretin receptor [2]): 58.8%
Compound: c1ccc(-c2ccc(Nc3nc(Oc4cccc5ccccc45)nc4c3ncn4C3CCCCC3)cc2)cc1

fold change (FC) (Secretin receptor [4]): 6.1
concentration at 24 h [5]: 61 ng/mL
Emax (Secretin receptor [6]): 238%
Emax (Secretin receptor [1]): 204%
concentration at 6 h [7]: > 300 ng/mL
Emax (Secretin receptor [9]): 103%
half-life [10]: 7.7 h
Emax (Secretin receptor [11]): 117%
concentration at 12 h [13]: 260 ng/mL
Cmax [14]: 647 ng/mL
EC50 (Secretin receptor [15]): 191 µM
Tmax [16]: 0.5 h
Emax (Secretin receptor [18]): 10.3%
Compound: c1ccc2c(Oc3nc(Nc4ccc(N5CCOCC5)cc4)c4ncn(C5CCCCC5)c4n3)cccc2c1 [PURMORPHAMINE]
Activity (Rattus norvegicus [8]): 7.63%
Activity (Rattus norvegicus [12]): 10.33%
Activity (Rattus norvegicus [17]): ~14%
Activity (Rattus norvegicus [19]): Active
